Results: ChEMBL document CHEMBL1130781, “Structure-based design and synthesis of a series of hydroxamic acids with a quaternary-hydroxy group in P1 as inhibitors of matrix metalloproteinases” (Bioorg Med Chem Lett, 1998)

How the values were obtained:
Stromelysin-1 = Stromelysin-1 (Homo sapiens, UniProt P08254); assay: Binding affinity against human matrix metalloprotease-3.
Interstitial collagenase = biological target: T1, Interstitial collagenase (Homo sapiens, UniProt P03956); assay: Binding affinity was evaluated against matrix metalloprotease-1
T1 sequence (P03956 whole entry): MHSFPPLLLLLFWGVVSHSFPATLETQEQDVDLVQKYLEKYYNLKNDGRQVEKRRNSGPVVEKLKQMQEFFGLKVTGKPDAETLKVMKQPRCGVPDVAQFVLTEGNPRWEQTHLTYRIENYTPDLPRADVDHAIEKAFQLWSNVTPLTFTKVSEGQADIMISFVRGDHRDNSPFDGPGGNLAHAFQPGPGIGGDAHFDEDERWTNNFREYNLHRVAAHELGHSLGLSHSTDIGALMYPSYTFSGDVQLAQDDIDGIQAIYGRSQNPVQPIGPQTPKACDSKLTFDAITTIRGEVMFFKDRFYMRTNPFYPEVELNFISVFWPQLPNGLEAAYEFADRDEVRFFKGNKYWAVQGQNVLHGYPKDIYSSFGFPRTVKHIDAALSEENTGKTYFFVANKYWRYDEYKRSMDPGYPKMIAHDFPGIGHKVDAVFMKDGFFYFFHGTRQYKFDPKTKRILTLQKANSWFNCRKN

[1] = biological target: Matrix metalloproteinase-9 (Homo sapiens, UniProt P14780); assay: Binding affinity was evaluated against matrix metalloprotease-9
Sequence of Matrix metalloproteinase-9 (P14780 whole entry): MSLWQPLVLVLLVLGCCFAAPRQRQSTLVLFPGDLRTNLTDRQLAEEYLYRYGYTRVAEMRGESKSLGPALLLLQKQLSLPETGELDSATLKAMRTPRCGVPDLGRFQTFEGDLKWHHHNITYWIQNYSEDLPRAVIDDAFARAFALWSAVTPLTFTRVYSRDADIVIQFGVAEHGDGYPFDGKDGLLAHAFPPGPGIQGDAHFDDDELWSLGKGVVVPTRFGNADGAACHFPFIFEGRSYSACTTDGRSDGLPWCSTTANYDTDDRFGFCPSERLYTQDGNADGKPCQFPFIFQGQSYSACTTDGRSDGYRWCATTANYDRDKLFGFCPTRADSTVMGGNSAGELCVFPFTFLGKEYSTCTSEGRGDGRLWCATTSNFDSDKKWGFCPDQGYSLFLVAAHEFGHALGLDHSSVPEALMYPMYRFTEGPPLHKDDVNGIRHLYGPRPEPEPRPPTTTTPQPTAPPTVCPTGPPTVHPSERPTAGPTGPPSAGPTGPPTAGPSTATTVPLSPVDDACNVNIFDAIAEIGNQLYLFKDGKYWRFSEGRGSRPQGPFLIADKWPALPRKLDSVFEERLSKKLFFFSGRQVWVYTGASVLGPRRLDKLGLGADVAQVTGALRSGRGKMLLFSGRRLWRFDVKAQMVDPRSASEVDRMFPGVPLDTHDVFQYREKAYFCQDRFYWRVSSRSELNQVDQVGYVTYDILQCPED

Sequence of Stromelysin-1 (P08254 whole entry): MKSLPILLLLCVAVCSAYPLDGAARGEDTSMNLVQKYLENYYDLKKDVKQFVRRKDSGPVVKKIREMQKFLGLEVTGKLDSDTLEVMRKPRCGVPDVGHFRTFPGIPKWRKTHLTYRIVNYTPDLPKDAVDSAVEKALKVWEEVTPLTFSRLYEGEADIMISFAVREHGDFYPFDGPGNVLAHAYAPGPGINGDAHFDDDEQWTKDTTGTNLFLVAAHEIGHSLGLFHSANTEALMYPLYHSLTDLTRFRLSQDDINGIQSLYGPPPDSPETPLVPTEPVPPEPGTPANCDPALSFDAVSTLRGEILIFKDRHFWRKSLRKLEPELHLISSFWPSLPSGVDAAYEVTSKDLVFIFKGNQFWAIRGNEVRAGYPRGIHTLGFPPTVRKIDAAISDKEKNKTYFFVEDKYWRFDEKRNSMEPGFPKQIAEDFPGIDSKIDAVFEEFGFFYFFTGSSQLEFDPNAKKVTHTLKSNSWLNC

Structure (SMILES) | Ki (Stromelysin-1) [nM] | Ki (Interstitial collagenase) [nM] | Ki [1] [nM]
CNC(=O)[C@H](CCCNS(=O)(=O)N(C)C)NC(=O)[C@H](CCCc1ccccc1)[C@@](C)(O)C(=O)NO | 24 | 22 | 2
C[C@@H](NC(=O)[C@H](CCCCN)NC(=O)[C@H](CCCc1ccccc1)[C@@](C)(O)C(=O)NO)c1ccccc1 | 168 | 282 | 149
C[C@](O)(C(=O)NO)[C@@H](CCCc1ccccc1)C(=O)N[C@@H](CCCCN)C(=O)NCCc1ccccc1 | 28 | 25 | 1
CNC(=O)[C@@H](NC(=O)[C@H](CCCc1ccccc1)[C@@](C)(O)C(=O)NO)C(C)(C)C | 13 | 13 | < 1
CNC(=O)[C@H](Cc1ccc(OC)cc1)NC(=O)[C@H](CC(C)C)[C@](C)(O)C(=O)NO | > 10000 | – | –
CNC(=O)[C@H](CCCNC(=O)OC(C)(C)C)NC(=O)[C@H](CCCc1ccccc1)[C@@](C)(O)C(=O)NO | 13 | 16 | 2
CNC(=O)[C@H](Cc1ccc(OC)cc1)NC(=O)[C@H](CC(C)C)[C@@](C)(O)C(=O)NO | 13 | 0.6 | < 1
CNC(=O)[C@H](CCCNC(=O)N1CCOCC1)NC(=O)[C@H](CCCc1ccccc1)[C@@](C)(O)C(=O)NO | 70 | 53 | 4
CNC(=O)[C@H](CCCCN)NC(=O)[C@H](CCCc1ccccc1)[C@@](C)(O)C(=O)NO | 32 | 15 | < 1

Continued, values first:

Ki (Stromelysin-1) [nM] | Ki (Interstitial collagenase) [nM] | Ki [1] [nM] | Structure (SMILES)
25 | 33 | 2 | CNC(=O)[C@H](Cc1ccc(OC)cc1)NC(=O)[C@H](CCc1ccccc1)[C@@](C)(O)C(=O)NO
103 | 18 | 5 | CNC(=O)[C@H](CCCN)NC(=O)[C@H](CCCc1ccccc1)[C@@](C)(O)C(=O)NO
3 | 2 | < 1 | CNC(=O)[C@H](Cc1ccc(OC)cc1)NC(=O)[C@H](CCCc1ccccc1)[C@@](C)(O)C(=O)NO
100 | 198 | 34 | CC(C)(C)OC(=O)[C@H](Cc1ccccc1)NC(=O)[C@H](CCCc1ccccc1)[C@@](C)(O)C(=O)NO
25 | 167 | > 213 | C[C@](O)(C(=O)NO)[C@@H](CCCc1ccccc1)C(=O)N[C@@H](Cc1ccccc1)C(=O)O
> 10000 | – | – | CNC(=O)[C@H](Cc1ccc(OC)cc1)NC(=O)[C@H](CCc1ccccc1)[C@](C)(O)C(=O)NO
> 10000 | – | – | CNC(=O)[C@H](Cc1ccc(OC)cc1)NC(=O)[C@H](Cc1ccccc1)[C@](C)(O)C(=O)NO
526 | 85 | 5 | CNC(=O)[C@H](Cc1ccc(OC)cc1)NC(=O)[C@H](Cc1ccccc1)[C@@](C)(O)C(=O)NO
